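Following 48 hours of exposure in 96-well plates, responses at five concentrations were used to interpolate endpoints linearly. GI50 = concentration required for 50% inhibition of growth. TGI: total growth inhibition.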

In the first experiment the test system is UACC-62 melanoma. Nature of the experiment: NCI tumour cell line growth inhibition, 48 h.
`COc1cc2ccnc([C@@H](OC(=O)c3ccccc3)c3ccc(OC)c(OC)c3OC)c2cc1OC` registered a TGI above 100 µM.
Compound `COC(=O)/C(C#N)=C1\NC(=O)c2ccccc21` came in with a TGI above 100 µM.
Take `O=C(O)CCNCCCNCCC(=O)O`: the TGI is above 100 µM.
As for `Cc1nc2sccn2c1-c1csc(Nc2ccccc2Cl)n1`, the GI50 was 3.05 µM and the TGI worked out at 23.3 µM.
The compound `NC1=NCCC1(c1ccccc1)c1ccccn1` (stereo unspecified) came in with a TGI above 100 µM.
On to `CC(C)=CCC\C(C)=C/C=C/C(C)=C\C=C\C(C)=C/C=C/C=C(C)\C=C\C=C(C)/C=C/C=C(/C)CCC=C(C)C`, for which the TGI was above 100 µM.
For `COC(=O)c1ccccc1NC(=O)C(=O)Cc1nc2c3c(ccc2[nH]c1=O)C(=O)c1ccccc1C3=O`, the TGI was 20.4 µM.
As to `FC(F)(F)c1cccc(Nc2nc(-c3ccccc3)nc3ncccc23)c1`, the GI50 is 5.84 µM and the TGI was found to be 26.2 µM.
The compound `CCOC(=O)C(C)(C)Oc1ccc2c(-c3ccccc3)cc(=O)oc2c1` came in with a TGI of 38.6 µM.
In turn, `CCCC1C(=O)CCc2c(OC)ccc(OC)c21` (stereo unspecified) came in with a TGI above 100 µM.
The same measure, in the same setting: to `NC(=O)NO.O.O.O.O.O.O.O.O.O.O.O.[Ge].[Ge].[Ge].[Ge].[Ge].[O]=[Ge].[O]=[Ge].[O]=[Ge].[O]=[Ge].[O]=[Ge][OH]` belongs 53.5 µM.
Same read-out and setting: in the case of `O=C(Nc1nc2ccc([N+](=O)[O-])cc2s1)C(=O)C(C1OC(=O)c2ccccc21)[N+](=O)[O-]` (stereo unspecified) it was above 100 µM; in that of `COc1cc2cc(OC)c3cc4c(cc3c2c(OC)c1OC)OCO4`, above 64.4 µM.
On to `CCC[CH2][Sn]([CH2]CCC)([S]c1cccc2cccnc12)[S]c1cccc2cccnc12`, for which the GI50 is 0.279 µM and the TGI was 0.959 µM.
In the case of `COC(=O)C1(C(C)C)CCc2c(OC)ccc(OC)c2C1=O` (stereo unspecified), the TGI was above 100 µM.
As for `OCc1cc2ccccc2c2c3c(ccc12)OCO3`, the GI50 is 21.5 µM and the TGI was 74.2 µM.

Another experiment concerns M14 melanoma. Kind of experiment: NCI tumour cell line growth inhibition, 48 h.
Take `CC1CCc2nc[nH]c(=O)c21` (stereo unspecified): the GI50 was above 100 µM and the TGI was above 100 µM.
For `Cc1cc(N(CCC#N)CCC#N)ccc1N=Nc1ccc(S(N)(=O)=O)cc1`, the TGI is above 100 µM.
The compound `Cc1nc2c(ccc3ncccc32)[nH]1` came in with a TGI above 100 µM.
In the case of `CN(C)C(=S)N=C(Nc1ccccc1)Nc1ccccc1`, the TGI was above 100 µM.
On the same count and under the same terms, to `Nc1ccccc1S(=O)(=O)N(CC(=O)O)c1ccccc1` belongs above 100 µM; to `COc1ccccc1N1C(=O)C2c3[nH]c4ccccc4c3C3CCC(C(C)(C)C)CC3C2C1=O` (stereo unspecified), above 100 µM.
Consider `C=CCO[C@H]1CO[C@H]2[C@@H]1OC[C@@H]2Oc1ccc(Nc2ccnc(Nc3ccc(O[C@H]4CO[C@H]5[C@@H]4OC[C@@H]5OCC=C)c(Cl)c3)n2)cc1Cl`, for which the GI50 is 1.77 µM and the TGI is 3.4 µM.
`O=C(O)CCC(NC(=O)c1ccc(Nc2nc3ccccc3nc2-c2cccs2)cc1)C(=O)O` (stereo unspecified) registered a TGI above 100 µM.
For the compound `COc1cc2ccnc([C@@H](OC(=O)c3ccccc3)c3ccc(OC)c(OC)c3OC)c2cc1OC`, the TGI was above 100 µM.
Still for that read-out and setting: to `COC(=O)/C(C#N)=C1\NC(=O)c2ccccc21` belongs above 100 µM; to `O=C(O)CCNCCCNCCC(=O)O`, above 100 µM.
`Cc1nc2sccn2c1-c1csc(Nc2ccccc2Cl)n1`: the GI50 is 3.38 µM and the TGI amounted to 18 µM.
`NC1=NCCC1(c1ccccc1)c1ccccn1` (stereo unspecified) showed a TGI above 100 µM.
`CC(C)=CCC\C(C)=C/C=C/C(C)=C\C=C\C(C)=C/C=C/C=C(C)\C=C\C=C(C)/C=C/C=C(/C)CCC=C(C)C`: the TGI is above 100 µM.
Compound `COC(=O)c1ccccc1NC(=O)C(=O)Cc1nc2c3c(ccc2[nH]c1=O)C(=O)c1ccccc1C3=O` returned a TGI above 100 µM.
Consider `FC(F)(F)c1cccc(Nc2nc(-c3ccccc3)nc3ncccc23)c1`, for which the GI50 was 3.79 µM and the TGI is 16.5 µM.
With `CCOC(=O)C(C)(C)Oc1ccc2c(-c3ccccc3)cc(=O)oc2c1`, the TGI is above 100 µM.
`CCCC1C(=O)CCc2c(OC)ccc(OC)c21` (stereo unspecified) displayed a TGI above 100 µM.
For `NC(=O)NO.O.O.O.O.O.O.O.O.O.O.O.[Ge].[Ge].[Ge].[Ge].[Ge].[O]=[Ge].[O]=[Ge].[O]=[Ge].[O]=[Ge].[O]=[Ge][OH]`, the TGI is above 89 µM.
In turn, `O=C(Nc1nc2ccc([N+](=O)[O-])cc2s1)C(=O)C(C1OC(=O)c2ccccc21)[N+](=O)[O-]` (stereo unspecified) returned a TGI above 100 µM.
Compound `COc1cc2cc(OC)c3cc4c(cc3c2c(OC)c1OC)OCO4` displayed a TGI above 62.1 µM.
`CCC[CH2][Sn]([CH2]CCC)([S]c1cccc2cccnc12)[S]c1cccc2cccnc12`: the GI50 was 0.175 µM and the TGI was found to be 0.339 µM.
`COC(=O)C1(C(C)C)CCc2c(OC)ccc(OC)c2C1=O` (stereo unspecified) gave a TGI above 100 µM.
As to `OCc1cc2ccccc2c2c3c(ccc12)OCO3`, the GI50 is 41.2 µM and the TGI was found to be 169 µM.

A further experiment deals with SW-620 colon. Nature of the experiment: NCI tumour cell line growth inhibition, 48 h.
For `CC1CCc2nc[nH]c(=O)c21` (stereo unspecified), the GI50 is above 100 µM and the TGI is above 100 µM.
Take `Cc1cc(N(CCC#N)CCC#N)ccc1N=Nc1ccc(S(N)(=O)=O)cc1`: the TGI was above 100 µM.
Compound `Cc1nc2c(ccc3ncccc32)[nH]1` yielded a TGI above 100 µM.
Still for that read-out and setting: in the case of `CN(C)C(=S)N=C(Nc1ccccc1)Nc1ccccc1` it was above 100 µM; in that of `Nc1ccccc1S(=O)(=O)N(CC(=O)O)c1ccccc1`, above 100 µM.
Compound `COc1ccccc1N1C(=O)C2c3[nH]c4ccccc4c3C3CCC(C(C)(C)C)CC3C2C1=O` (stereo unspecified) displayed a TGI above 100 µM.
Take `C=CCO[C@H]1CO[C@H]2[C@@H]1OC[C@@H]2Oc1ccc(Nc2ccnc(Nc3ccc(O[C@H]4CO[C@H]5[C@@H]4OC[C@@H]5OCC=C)c(Cl)c3)n2)cc1Cl`: the GI50 is 1.77 µM and the TGI came out at 3.29 µM.
In turn, `O=C(O)CCC(NC(=O)c1ccc(Nc2nc3ccccc3nc2-c2cccs2)cc1)C(=O)O` (stereo unspecified) showed a TGI above 100 µM.
On the same count and under the same terms, in the case of `COc1cc2ccnc([C@@H](OC(=O)c3ccccc3)c3ccc(OC)c(OC)c3OC)c2cc1OC` it was above 100 µM; in that of `COC(=O)/C(C#N)=C1\NC(=O)c2ccccc21`, above 100 µM.
Same read-out and setting: to `O=C(O)CCNCCCNCCC(=O)O` belongs above 100 µM.
Take `Cc1nc2sccn2c1-c1csc(Nc2ccccc2Cl)n1`: the GI50 is 3.22 µM and the TGI amounted to 25.9 µM.
`NC1=NCCC1(c1ccccc1)c1ccccn1` (stereo unspecified) had a TGI above 100 µM.
